Converted amounts (≈) assume the structure as drawn. Bounds are passed on as bounds.

For the data set the following is noted: buffer; pH 7.4; 200.0 µM.
Broadly, the solubility (kinetic) is the concentration staying in solution when a stock, usually in DMSO, is diluted into the medium. The compound `Cc1c(NCc2ccncc2)cccc1C(=O)O` returned a kinetic solubility greater than 36.3 µg/mL.
The compound `COc1ccc(S(=O)(=O)NC(C)C(=O)N2CCCC2)cc1Cl` (stereo not drawn) returned a solubility (kinetic) of 47 µg/mL (≈ 136 µM).
Turning to `O=S(=O)(O)c1ccc(SCc2ccccc2)nc1`, the solubility (kinetic) was greater than 42.2 µg/mL.
`Cc1c(Cl)ccc(S(=O)(=O)NCCN2CCOCC2)c1Cl` yielded a solubility (kinetic) greater than 53 µg/mL.
With `CC1(C)CC2(C)OCCN2C(=S)N1` (stereo not drawn) the figure was greater than 30 µg/mL; with `CSc1ccccc1C(=O)NC1CCCc2ccccc21` (stereo not drawn), 11.7 µg/mL (≈ 39.3 µM); with `O=C(Nc1ccccc1)Nc1sccc1-c1nc2ccccc2s1`, 3.8 µg/mL (≈ 10.8 µM).
Compound `Cc1ccc(Cl)cc1NC(=O)Cn1c(C)csc1=O` came in with a solubility (kinetic) of 16.4 µg/mL (≈ 55.3 µM).
To `CC(c1nccs1)N(C)c1nc2nonc2nc1NC1CC1` (stereo not drawn) belongs 9.6 µg/mL (≈ 30.2 µM); to `O=C(Nc1ccccc1Br)c1c(F)cccc1Cl`, 13.5 µg/mL (≈ 41.1 µM); to `O=[N+]([O-])c1cc(Cl)ccc1NCCc1ccccn1`, 28.7 µg/mL (≈ 103 µM).
To `CCOC(=O)C1CCCN(Cc2cc(=O)oc3cc(C)c(C)cc23)C1` (stereo not drawn) belongs 23.1 µg/mL (≈ 67.3 µM); to `O=C(CCNC(=O)c1ccccc1)NCCCc1ccccc1`, greater than 46.6 µg/mL; to `COc1ccc(C(=O)N2CCN(C(=O)C3CCCO3)CC2)cc1[N+](=O)[O-]` (stereo not drawn), greater than 54.5 µg/mL.
With `CC(=O)c1cc(C(C)=O)c(C)nc1C` the figure was greater than 28.7 µg/mL.
Regarding `O=C(CCCc1ccccc1)NCc1ccccn1`, the solubility (kinetic) was found to be 29.2 µg/mL (≈ 115 µM).
In the case of `Cc1ccc(S(=O)(=O)N[C@H](C(=O)OCC(=O)NC(=O)C2CCCCC2)C(C)C)cc1`, the kinetic solubility amounted to 11.4 µg/mL (≈ 26 µM).
In the case of `O=C(Nc1csc([N+](=O)[O-])c1)Nc1c(Cl)cccc1Cl`, the solubility (kinetic) is 1.9 µg/mL (≈ 5.72 µM).
To `O=C(c1cc(S(=O)(=O)N2CCOCC2)ccc1Cl)N1CCCCC1CO` (stereo not drawn) belongs greater than 60.4 µg/mL.
To `O=C(COC(=O)c1cc(S(=O)(=O)N2CCOCC2)ccc1F)c1ccccc1` belongs greater than 61.1 µg/mL; to `CC(=O)Nc1ccc(NC(=O)C(C)Sc2nnc(-c3ccc4c(c3)OCO4)o2)cc1` (stereo not drawn), greater than 64 µg/mL.
`O=c1[nH]cc(-c2ccc(Br)cc2)n1Cc1ccccc1` returned a solubility (kinetic) of 1.6 µg/mL (≈ 4.86 µM).
With `CC1(C)CCc2cc(-c3ccnc(=S)[nH]3)ccc2O1` the figure was 8.5 µg/mL (≈ 31.2 µM).
With `N#CC1(c2ccccc2)CCC(=O)N1Cc1ccccc1` (stereo not drawn) the figure was greater than 41.5 µg/mL.
With `S=C(NC1CCCCC1)NC1CC2C=CC1C2` (stereo not drawn) the figure was 19.5 µg/mL (≈ 77.9 µM).
As for `O=C(Nc1ccc2c(c1)OCO2)c1ccccn1`, the kinetic solubility came out at 31.4 µg/mL (≈ 130 µM).
To `CC(C)COP(=O)(c1ccc(N(C)C)cc1)C(O)c1cccnc1` (stereo not drawn) belongs 49.6 µg/mL (≈ 142 µM); to `CCOc1ccc2[nH]cc(-c3csc(N)n3)c2c1`, 20.5 µg/mL (≈ 79 µM); to `CCCCCCCNc1cccc(C)c1`, less than 0.4 µg/mL.
With `COc1ccc(C(=O)N2CCN(CCc3ccccn3)CC2)cc1.Cl` the figure was greater than 54.3 µg/mL; with `O=S(=O)(/C=C/c1ccccc1)N1CCc2ccccc2C1`, less than 0.6 µg/mL; with `Cc1onc(NC(=O)CSCC(=O)O)c1Br`, greater than 46.4 µg/mL.
To `N#Cc1c(Nc2ccccc2)s[nH]c1=O` belongs greater than 32.6 µg/mL; to `O=C(COC(=O)c1cnccn1)Nc1ccc(Cl)cn1`, greater than 43.9 µg/mL; to `CC(=O)c1ccc(Oc2ncnc(N)c2[N+](=O)[O-])cc1`, 2.3 µg/mL (≈ 8.39 µM).
Regarding `CC(=O)Nc1cc2c3c(c1)CC(=O)N3CCC2`, the solubility (kinetic) was greater than 34.5 µg/mL.
To `CC1N(C(=O)N(C)C)CCN1S(=O)(=O)c1ccccc1` (stereo not drawn) belongs greater than 44.6 µg/mL; to `O=C(NC(=S)Nc1ccccc1Br)C1CCCC1`, 2.7 µg/mL (≈ 8.25 µM); to `Cc1cccn2c(=O)nc(SCC(=O)N3CC(C)OC(C)C3)nc12` (stereo not drawn), 51.7 µg/mL (≈ 148 µM).
To `O=C(NCc1ccccc1Cl)c1ccncc1` belongs greater than 37 µg/mL.
With `O=C(Nc1cc(Cl)ccc1F)C1=COCCO1` the figure was greater than 38.6 µg/mL.
The compound `CC(C)CC(=O)Nc1ccc(Oc2ccc3c(c2)C(=O)NC3=O)cc1` gave a kinetic solubility of 0.4 µg/mL (≈ 1.18 µM).
With `COc1ccc(-c2cc(C(F)(F)F)c(C#N)c(=O)[nH]2)cc1` the figure was 21.2 µg/mL (≈ 72.1 µM); with `O=C(Nc1ccc(NC(=O)C2CC2)cc1)c1cccs1`, 3.3 µg/mL (≈ 11.5 µM).
To `CC(C)(C)c1ccc(-c2nc(N)nc(N)n2)cc1` belongs 0.9 µg/mL (≈ 3.7 µM).
To `O=Cc1cnc(N2CCN(Cc3ccccc3)CC2)s1` belongs greater than 43.1 µg/mL.
Compound `N#CC(C(=S)Nc1ccccc1)c1nc2ccccc2[nH]1` (stereo not drawn) returned a solubility (kinetic) of 0.9 µg/mL (≈ 3.08 µM).
With `COc1ccc(S(=O)(=O)NCCc2ccccc2)cc1OC` the figure was 39.9 µg/mL (≈ 124 µM).
`CCC(C(=O)Nc1cccnc1)c1ccccc1` (stereo not drawn) showed a solubility (kinetic) of 34.3 µg/mL (≈ 143 µM).
The compound `COc1ccc(-c2cc(=O)[nH]c(N3CCN(Cc4ccccc4)CC3)n2)cc1` gave a kinetic solubility of 0.8 µg/mL (≈ 2.13 µM).
With `Cc1ccc(NC(=O)COC(=O)Cn2cnc3c2c(=O)n(C)c(=O)n3C)cc1` the figure was greater than 57.8 µg/mL; with `Cc1cc(C)n(CC(=O)Nc2ccc3c(c2)OCO3)c(=O)c1C#N`, 8.4 µg/mL (≈ 25.8 µM).
With `CCOC(=O)COc1ccc(S(=O)(=O)NC2CC2)cc1` the figure was greater than 44.9 µg/mL.

These data come from PubChem BioAssay AID1996.
